Test results reported in ChEMBL document CHEMBL4507257, “Data for DCP probe ABT-100” (2021).
pKi: −log10 of the molar value.

Key:
[1] = target: Serine/threonine-protein kinase BRSK2 (Homo sapiens, UniProt Q8IWQ3); assay: Inhibition of BRSK2 at compound concentration of 10.0 uM using the ScanMax (DiscoverX)
[2] = target: Cyclin-dependent kinase 7 (Homo sapiens, UniProt P50613); assay: Inhibition of CDK7 at compound concentration of 10.0 uM using the ScanMax (DiscoverX)
Histamine H1 receptor = Histamine H1 receptor (Homo sapiens, UniProt P35367); assay: GPCRScan assay: inhibition of H1; set-up: radioligand conc. used [nm] 0.6 – 2.0, parental cells stable HEK
[3] = target: Adrenergic receptor alpha-2 (Homo sapiens) (UniProt P08913+P18825+P18089); assay: alpha2 (non-selective) Ligand binding assay; format: protein assay; conditions: Compound concentration 10.0 uM
[4] = target: Beta-1 adrenergic receptor (Homo sapiens) (UniProt P08588); assay: beta1 (h) Ligand binding assay; conditions: Compound concentration 10.0 uM
Beta-1 adrenergic receptor (Homo sapiens), sequence (P08588 whole entry, looked up): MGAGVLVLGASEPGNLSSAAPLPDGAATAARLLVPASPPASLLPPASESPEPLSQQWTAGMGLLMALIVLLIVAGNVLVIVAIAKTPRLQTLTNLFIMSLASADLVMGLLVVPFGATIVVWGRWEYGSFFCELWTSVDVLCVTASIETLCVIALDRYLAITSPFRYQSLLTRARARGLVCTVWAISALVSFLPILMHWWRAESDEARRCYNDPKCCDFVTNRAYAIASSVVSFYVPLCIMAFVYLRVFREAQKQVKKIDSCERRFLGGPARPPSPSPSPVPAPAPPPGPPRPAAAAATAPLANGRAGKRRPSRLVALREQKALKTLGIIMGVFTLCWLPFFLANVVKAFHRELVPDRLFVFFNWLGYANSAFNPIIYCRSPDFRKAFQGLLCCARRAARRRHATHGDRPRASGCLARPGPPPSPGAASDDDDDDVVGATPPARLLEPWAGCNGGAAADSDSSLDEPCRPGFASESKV

[5] = target: Beta-2 adrenergic receptor (Homo sapiens) (UniProt P07550); assay: beta2 (h) Ligand binding assay; conditions: Compound concentration 10.0 uM
[6] = target: Sodium-dependent noradrenaline transporter (Homo sapiens) (UniProt P23975); assay: NE uptake (h) Ligand binding assay
Sodium-dependent noradrenaline transporter (Homo sapiens), sequence (P23975 whole entry): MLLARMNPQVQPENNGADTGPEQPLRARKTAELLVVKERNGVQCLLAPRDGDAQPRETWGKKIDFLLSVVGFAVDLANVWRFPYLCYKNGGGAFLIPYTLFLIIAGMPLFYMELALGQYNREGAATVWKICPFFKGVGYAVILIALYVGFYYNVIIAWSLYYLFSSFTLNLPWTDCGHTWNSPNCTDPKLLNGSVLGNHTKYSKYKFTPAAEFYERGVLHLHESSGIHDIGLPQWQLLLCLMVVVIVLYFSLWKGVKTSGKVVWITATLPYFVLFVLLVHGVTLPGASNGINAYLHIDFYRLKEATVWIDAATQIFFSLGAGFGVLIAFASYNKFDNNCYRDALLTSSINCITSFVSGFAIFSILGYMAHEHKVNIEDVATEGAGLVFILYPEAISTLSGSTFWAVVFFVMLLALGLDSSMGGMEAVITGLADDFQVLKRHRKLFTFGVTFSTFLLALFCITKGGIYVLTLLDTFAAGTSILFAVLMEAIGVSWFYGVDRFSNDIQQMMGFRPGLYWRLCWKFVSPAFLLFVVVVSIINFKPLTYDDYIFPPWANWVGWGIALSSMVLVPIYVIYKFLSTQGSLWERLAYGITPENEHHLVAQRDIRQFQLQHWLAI

[7] = target: Type-1 angiotensin II receptor (Homo sapiens) (UniProt P30556); assay: AT1 (h) Ligand binding assay; conditions: Compound concentration 10.0 uM
[8] = target: GABA-A receptor; anion channel (Homo sapiens) (UniProt P14867+P47870+P18507+P28472+P48169+Q99928+Q9UN88+P34903+O00591+O14764+Q8N1C3+P18505+P78334+P47869+P31644+Q16445); assay: BZD (central) Ligand binding assay; format: protein-complex assay; conditions: Compound concentration 10.0 uM
[9] = target: Bombesin receptor (Homo sapiens) (UniProt P28336+P32247+P30550); assay: Bombesin Ligand binding assay; format: protein assay; conditions: Compound concentration 10.0 uM
[10] = target: B2 bradykinin receptor (Homo sapiens) (UniProt P30411); assay: B2 (h) Ligand binding assay; conditions: Compound concentration 10.0 uM
[11] = target: Calcitonin-gene-related peptide receptor, CALCRL/RAMP1 (Homo sapiens) (UniProt O60894+Q16602); assay: CGRP (h) Ligand binding assay; format: protein-complex assay; conditions: Compound concentration 10.0 uM
[12] = target: Cannabinoid receptor 1 (Homo sapiens) (UniProt P21554); assay: CB1 (h) (central) Ligand binding assay
Cannabinoid receptor 1 (Homo sapiens), sequence (P21554 whole entry): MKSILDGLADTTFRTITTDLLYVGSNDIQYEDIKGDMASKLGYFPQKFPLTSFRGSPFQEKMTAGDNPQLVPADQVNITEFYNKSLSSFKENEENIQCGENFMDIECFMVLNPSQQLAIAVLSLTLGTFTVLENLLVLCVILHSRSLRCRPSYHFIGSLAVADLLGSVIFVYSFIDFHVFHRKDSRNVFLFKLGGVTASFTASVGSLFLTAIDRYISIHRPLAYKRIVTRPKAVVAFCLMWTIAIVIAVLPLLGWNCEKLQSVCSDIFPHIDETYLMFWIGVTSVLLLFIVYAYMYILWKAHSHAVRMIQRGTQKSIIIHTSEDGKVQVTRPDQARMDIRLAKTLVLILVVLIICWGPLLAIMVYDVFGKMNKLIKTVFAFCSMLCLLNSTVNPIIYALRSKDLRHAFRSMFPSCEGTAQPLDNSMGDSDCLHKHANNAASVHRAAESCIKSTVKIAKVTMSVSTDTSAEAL

[13] = target: Cannabinoid receptor 2 (Homo sapiens) (UniProt P34972); assay: CB2 (h) (peripheral) Ligand binding assay; conditions: Compound concentration 10.0 uM
Cannabinoid receptor 2 (Homo sapiens), sequence (P34972 whole entry): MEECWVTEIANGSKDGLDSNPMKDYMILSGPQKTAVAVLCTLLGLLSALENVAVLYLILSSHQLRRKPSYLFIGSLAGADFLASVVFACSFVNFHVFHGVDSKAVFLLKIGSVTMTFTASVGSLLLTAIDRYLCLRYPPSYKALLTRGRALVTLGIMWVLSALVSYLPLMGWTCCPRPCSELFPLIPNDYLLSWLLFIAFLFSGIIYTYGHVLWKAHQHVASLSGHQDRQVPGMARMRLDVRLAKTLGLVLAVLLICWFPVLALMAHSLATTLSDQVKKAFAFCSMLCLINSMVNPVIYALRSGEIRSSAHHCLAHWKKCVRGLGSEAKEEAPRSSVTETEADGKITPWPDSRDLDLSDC

[14] = target: Cholecystokinin receptor type A (Homo sapiens) (UniProt P32238); assay: CCKA (h) Ligand binding assay; conditions: Compound concentration 10.0 uM
[15] = target: D(1A) dopamine receptor (Homo sapiens) (UniProt P21728); assay: D1 (h) Ligand binding assay; conditions: Compound concentration 10.0 uM
[16] = target: D(2) dopamine receptor (Homo sapiens) (UniProt P14416); assay: D2 (h) Ligand binding assay; conditions: Compound concentration 10.0 uM
[17] = target: Endothelin-1 receptor (Homo sapiens) (UniProt P25101); assay: ETA (h) Ligand binding assay; conditions: Compound concentration 10.0 uM
[18] = target: Endothelin receptor type B (Homo sapiens) (UniProt P24530); assay: ETB (h) Ligand binding assay; conditions: Compound concentration 10.0 uM
[19] = GABA (non selective) Ligand binding assay; conditions: Compound concentration 10.0 uM
[20] = target: Platelet-derived growth factor receptor (Homo sapiens) (UniProt P09619+P16234); assay: PDGF Ligand binding assay; format: protein-complex assay; conditions: Compound concentration 10.0 uM
[21] = target: Muscarinic acetylcholine receptor M2 (Homo sapiens) (UniProt P08172); assay: M2 (h) Ligand binding assay; conditions: Compound concentration 10.0 uM
Muscarinic acetylcholine receptor M2 (Homo sapiens), sequence (P08172 whole entry): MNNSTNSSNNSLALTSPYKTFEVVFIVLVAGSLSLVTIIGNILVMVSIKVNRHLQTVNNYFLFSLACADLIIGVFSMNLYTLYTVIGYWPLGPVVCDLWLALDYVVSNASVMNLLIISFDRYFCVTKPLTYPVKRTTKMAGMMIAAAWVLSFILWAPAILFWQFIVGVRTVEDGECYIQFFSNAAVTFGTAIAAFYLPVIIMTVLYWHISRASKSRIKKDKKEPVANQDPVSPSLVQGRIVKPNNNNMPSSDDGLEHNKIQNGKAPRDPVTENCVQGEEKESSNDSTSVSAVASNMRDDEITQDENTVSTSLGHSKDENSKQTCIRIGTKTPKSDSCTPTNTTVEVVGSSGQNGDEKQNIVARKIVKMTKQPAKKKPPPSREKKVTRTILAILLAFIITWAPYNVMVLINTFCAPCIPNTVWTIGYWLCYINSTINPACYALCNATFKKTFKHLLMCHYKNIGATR

[22] = target: T1, Muscarinic acetylcholine receptor M4 (Homo sapiens) (UniProt P08173); assay: M4 (h) Ligand binding assay; conditions: Compound concentration 10.0 uM
T1 sequence (whole entry): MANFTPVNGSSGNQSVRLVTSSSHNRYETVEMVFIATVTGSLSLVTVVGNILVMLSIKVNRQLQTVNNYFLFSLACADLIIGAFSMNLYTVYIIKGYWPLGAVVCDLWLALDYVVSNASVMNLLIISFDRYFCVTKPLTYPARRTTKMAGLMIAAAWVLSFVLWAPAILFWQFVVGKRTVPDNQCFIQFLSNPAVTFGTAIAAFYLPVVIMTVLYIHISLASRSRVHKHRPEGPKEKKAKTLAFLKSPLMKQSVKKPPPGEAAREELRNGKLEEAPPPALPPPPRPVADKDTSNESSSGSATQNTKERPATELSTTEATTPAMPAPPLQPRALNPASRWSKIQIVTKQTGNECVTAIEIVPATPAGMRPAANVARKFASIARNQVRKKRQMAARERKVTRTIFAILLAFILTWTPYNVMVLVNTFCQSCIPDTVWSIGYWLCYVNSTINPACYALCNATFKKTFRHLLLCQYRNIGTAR

[23] = target: Substance-K receptor (Homo sapiens) (UniProt P21452); assay: NK2 (h) Ligand binding assay
Substance-K receptor (Homo sapiens), sequence (P21452 whole entry): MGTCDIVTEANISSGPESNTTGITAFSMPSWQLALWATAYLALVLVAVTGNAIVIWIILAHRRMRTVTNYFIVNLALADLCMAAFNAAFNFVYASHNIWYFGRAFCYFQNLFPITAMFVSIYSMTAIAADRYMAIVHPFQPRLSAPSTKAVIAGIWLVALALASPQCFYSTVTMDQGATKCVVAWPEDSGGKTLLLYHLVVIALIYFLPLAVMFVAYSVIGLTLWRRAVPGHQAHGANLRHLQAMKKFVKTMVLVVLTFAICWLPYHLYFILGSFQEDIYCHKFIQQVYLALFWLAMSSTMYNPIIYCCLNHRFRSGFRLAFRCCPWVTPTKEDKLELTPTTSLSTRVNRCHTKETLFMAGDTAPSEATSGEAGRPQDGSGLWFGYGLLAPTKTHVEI

[24] = target: Neuromedin-K receptor (Homo sapiens) (UniProt P29371); assay: NK3 (h) Ligand binding assay; conditions: Compound concentration 10.0 uM
Neuromedin-K receptor (Homo sapiens), sequence (P29371 whole entry): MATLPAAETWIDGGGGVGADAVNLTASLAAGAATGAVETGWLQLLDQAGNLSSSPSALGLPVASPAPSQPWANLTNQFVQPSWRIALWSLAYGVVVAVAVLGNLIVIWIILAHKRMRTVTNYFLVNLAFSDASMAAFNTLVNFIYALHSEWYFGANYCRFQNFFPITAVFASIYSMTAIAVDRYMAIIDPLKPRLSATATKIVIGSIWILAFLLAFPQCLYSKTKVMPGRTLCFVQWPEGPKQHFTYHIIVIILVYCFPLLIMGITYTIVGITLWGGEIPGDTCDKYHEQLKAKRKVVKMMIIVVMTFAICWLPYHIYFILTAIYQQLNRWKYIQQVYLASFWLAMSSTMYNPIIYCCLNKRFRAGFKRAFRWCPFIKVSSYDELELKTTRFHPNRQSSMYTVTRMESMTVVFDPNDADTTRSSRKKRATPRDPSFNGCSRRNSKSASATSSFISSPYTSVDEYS

[25] = target: Neuropeptide Y receptor type 1 (Homo sapiens) (UniProt P25929); assay: Y1 (h) Ligand binding assay; conditions: Compound concentration 10.0 uM
Neuropeptide Y receptor type 1 (Homo sapiens), sequence (P25929 whole entry): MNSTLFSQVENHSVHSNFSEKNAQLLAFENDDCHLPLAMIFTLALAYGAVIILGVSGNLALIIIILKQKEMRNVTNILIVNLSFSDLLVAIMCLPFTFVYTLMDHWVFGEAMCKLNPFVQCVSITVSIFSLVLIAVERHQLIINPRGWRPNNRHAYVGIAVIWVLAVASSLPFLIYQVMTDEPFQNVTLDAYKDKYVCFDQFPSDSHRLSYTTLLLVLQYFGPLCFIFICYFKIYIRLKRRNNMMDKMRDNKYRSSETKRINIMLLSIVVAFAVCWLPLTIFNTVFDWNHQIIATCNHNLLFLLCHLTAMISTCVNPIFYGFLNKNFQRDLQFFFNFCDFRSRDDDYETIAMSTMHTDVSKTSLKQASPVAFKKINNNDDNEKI

[26] = target: Kappa-type opioid receptor (Homo sapiens) (UniProt P41145); assay: Kappa (h) Ligand binding assay; conditions: Compound concentration 10.0 uM
[27] = target: Nociceptin receptor (Homo sapiens) (UniProt P41146); assay: ORL-1 (h) Ligand binding assay; conditions: Compound concentration 10.0 uM
[28] = target: P2X receptor (Rattus norvegicus) (UniProt P51579+P49653+P51578+Q64663+P47824+P51577+P49654); assay: P2X Ligand binding assay; format: protein assay; conditions: Compound concentration 10.0 uM
[29] = target: 5-hydroxytryptamine receptor 5A (Homo sapiens) (UniProt P47898); assay: 5-HT5A (h) Ligand binding assay; conditions: Compound concentration 10.0 uM
[30] = target: Somatostatin receptor (Homo sapiens) (UniProt P35346+P30874+P31391+P30872+P32745); assay: Somatostatin Ligand binding assay; format: protein assay; conditions: Compound concentration 10.0 uM
[31] = target: Vasopressin V1a receptor (Homo sapiens) (UniProt P37288); assay: V1a (h) Ligand binding assay; conditions: Compound concentration 10.0 uM
Vasopressin V1a receptor (Homo sapiens), sequence (P37288 whole entry, looked up): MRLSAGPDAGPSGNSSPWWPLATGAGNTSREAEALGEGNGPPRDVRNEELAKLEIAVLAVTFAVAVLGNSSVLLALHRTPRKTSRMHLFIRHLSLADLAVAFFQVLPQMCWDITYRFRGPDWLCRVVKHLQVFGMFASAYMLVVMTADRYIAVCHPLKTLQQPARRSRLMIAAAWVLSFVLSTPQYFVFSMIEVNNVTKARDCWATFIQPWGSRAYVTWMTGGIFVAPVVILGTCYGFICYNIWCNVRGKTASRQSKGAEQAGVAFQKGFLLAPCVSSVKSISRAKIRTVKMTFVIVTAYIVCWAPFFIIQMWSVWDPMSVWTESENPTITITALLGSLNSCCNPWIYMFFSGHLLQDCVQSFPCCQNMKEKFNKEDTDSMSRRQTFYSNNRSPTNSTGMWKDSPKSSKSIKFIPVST

[32] = target: L-type calcium channel (verapamil site) (Homo sapiens, UniProt O60840+Q01668+Q13698+Q13936); assay: Ca2+ channel (L verapamil site) Ligand binding assay; format: protein assay
[33] = target: Calcium-activated potassium channel (Homo sapiens) (UniProt Q92952+Q9UGI6+Q12791+O15554+Q9H2S1+A8MYU2); assay: K+ channel (Ca2+ - dependent) Ligand binding assay; format: protein assay; conditions: Compound concentration 10.0 uM
[34] = target: D(1B) dopamine receptor (Homo sapiens) (UniProt P21918); conditions: Compound concentration 10.0 uM
[35] = target: Muscarinic acetylcholine receptor M2 (Homo sapiens) (UniProt P08172); conditions: Compound concentration 10.0 uM
[36] = target: Alpha-1D adrenergic receptor (Homo sapiens) (UniProt P25100); conditions: Compound concentration 10.0 uM
[37] = system: Glutamate receptor ionotropic NMDA, PCP site (Homo sapiens); assay: PCP Ligand binding assay

Serine/threonine-protein kinase BRSK2, sequence (Q8IWQ3 whole entry): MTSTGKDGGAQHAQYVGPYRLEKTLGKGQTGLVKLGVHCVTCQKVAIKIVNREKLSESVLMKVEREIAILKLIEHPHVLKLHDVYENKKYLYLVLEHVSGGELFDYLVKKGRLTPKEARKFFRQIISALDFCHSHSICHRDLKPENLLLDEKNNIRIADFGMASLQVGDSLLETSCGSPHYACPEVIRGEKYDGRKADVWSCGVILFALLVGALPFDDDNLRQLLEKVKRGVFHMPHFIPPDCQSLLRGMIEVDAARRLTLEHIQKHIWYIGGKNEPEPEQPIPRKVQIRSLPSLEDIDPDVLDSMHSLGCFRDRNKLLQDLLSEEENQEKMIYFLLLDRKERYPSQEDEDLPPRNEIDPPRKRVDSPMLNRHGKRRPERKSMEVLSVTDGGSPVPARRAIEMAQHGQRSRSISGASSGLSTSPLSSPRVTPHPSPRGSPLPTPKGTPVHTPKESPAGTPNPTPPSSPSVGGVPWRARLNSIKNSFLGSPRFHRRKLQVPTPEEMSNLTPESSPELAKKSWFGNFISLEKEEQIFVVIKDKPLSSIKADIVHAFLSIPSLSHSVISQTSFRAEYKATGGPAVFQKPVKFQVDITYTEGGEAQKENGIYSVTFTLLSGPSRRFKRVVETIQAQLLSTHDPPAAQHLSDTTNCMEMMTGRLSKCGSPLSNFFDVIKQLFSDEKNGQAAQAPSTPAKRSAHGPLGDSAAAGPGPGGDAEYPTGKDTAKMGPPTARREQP

## Cn1cncc1[C@](O)(COc1ccc(C#N)cc1-c1ccc(OC(F)(F)F)cc1)c1ccc(C#N)cc1 [ABT-100]
[1]
  Kd: > 10 µM (not active)
[2]
  Kd: > 10 µM (not active)
Histamine H1 receptor
  pKi: 5.00
[3]
  inhibition: < 10%
[4]
  inhibition: 22%
[5]
  inhibition: 10%
[6]; Compound concentration 3.0 uM
  inhibition: 45%
[6]; Compound concentration 10.0 uM
  inhibition: 74%
[7]
  inhibition: < 10%
[8]
  inhibition: < 10%
[9]
  inhibition: < 10%
[10]
  inhibition: < 10%
[11]
  inhibition: < 10%
[12]; Compound concentration 1.0 uM
  inhibition: 23%
[12]; Compound concentration 3.0 uM
  inhibition: 45%
[12]; Compound concentration 10.0 uM
  inhibition: 68%
[13]
  inhibition: < 10%
[14]
  inhibition: < 10%
[15]
  inhibition: 31%
[16]
  inhibition: 12%
[17]
  inhibition: < 10%
[18]
  inhibition: 21%
[19]
  inhibition: < 10%
[20]
  inhibition: < 10%
[21]
  inhibition: < 10%
[22]
  inhibition: < 10%
[23]; Compound concentration 3.0 uM
  inhibition: 32%
[23]; Compound concentration 10.0 uM
  inhibition: 81%
[24]
  inhibition: 45%
[25]
  inhibition: < 10%
[26]
  inhibition: 36%
[27]
  inhibition: < 10%
[28]
  inhibition: < 10%
[29]
  inhibition: 30%
[30]
  inhibition: 13%
[31]
  inhibition: < 10%
[32]; compound concentration 1 uM
  inhibition at 1 µM: 10% (not active)
[32]; compound concentration 3 uM
  inhibition at 3 µM: 37% (not active)
[32]; compound concentration 10 uM
  inhibition at 10 µM: 60%
[33]
  inhibition: < 10%
[34]
  inhibition: 4.79%
[35]
  inhibition: -1.19%
[36]
  inhibition: -8.65%
[37]; Compound concentration 0.3 uM
  inhibition: 14%
[37]; Compound concentration 1.0 uM
  inhibition: 75%
[37]; Compound concentration 3.0 uM
  inhibition: 97%
[37]; Compound concentration 10.0 uM
  inhibition: 100%
